Legend:
[1] = Cell viability (MTT assay) in SK-MEL-28; assay type: cell-based, Human; details: human, SK-MEL-28 melanoma cells
Description: (§1) Cell Lines/Cells: Human Keratinocytes (HaCaT); Human melanoma (SK-MEL-28); Human PBMCs. Test Item: IS181 Treatment regimen: Single addition—24 h, ^#Multiple additions (3)−72 h; Concentration range: 1 ng/ml-2 mg/ml (triplicate wells); Sera Condition: […] Method of estimation: MTT assay. […] Positive control: Triton-X-100, Doxorubicin Hydrochloride.

[2] = test system: Human melanoma (SK-MEL-28); experiment: Cell viability (MTT assay) in SK-MEL-28; assay type: cell-based
Description: as §1

TARC = experiment: TNF-α stimulated TARC secretion in HaCaT; assay type: cell-based, Human; details: for TARC % decrease with respect to TNF-α / TARC Conc: HaCaT + TNF-α, 24 h
Description: (§2) Effect on pro-inflammatory cytokines against TNF-α/LPS+PMA stimulation: TNF-α; IFN-γ; TARC; TSLP; IL-6; IL-8: Cell lines: Human keratinocytes (HaCaT); test item (TI); IS181; experimental steps: pre-treatment of cells with TI for 2 hours; stimulation with TNF-α: 20 ng/ml; stimulation with LPS+PMA-10 μg/ml LPS+40 ng/ml PMA; supernatant collection for cytokine analysis after 24 hours; concentration range: 0.1 μg/ml-100 μg/ml (duplicate wells); cytokines: TNF-α; IFN-γ; TARC; TSLP; IL-6; IL-8. Method of estimating cytokines: ELISA; positive control: dexamethasone.
(§3) Cell line: HaCaT (Human Keratinocytes); TI Treatment regimen: Pretreatment for 2 h; TI Concentration range: 0.1 μg/ml-100 μg/ml (duplicate wells); TNF-α stimulation: 20 ng/ml; LPS+PMA stimulation: 10 μg/ml LPS+40 ng/ml PMA; Time point for supernatants collection: 24 h; Method of estimation: ELISA; Positive control: Dexamethasone

IL-8 = experiment: LPS+PMA stimulated IL-8 secretion in HaCaT; assay type: cell-based, Human; details: for IL-8 % decrease with respect to LPS + PMA / IL-8 Conc: HaCaT + LPS + PMA, 24 h
Description: as §2, §3

JAK1 = JAK1 (Homo sapiens, UniProt P23458); experiment: Biochemical kinase assay JAK1
Description: (§4) Test system: cell free assays; test items: IS181; concentrations tested: 1 ng/ml-5000 μg/ml; Kinases: a) Cell free assays: EGFR (ErbB1); FLT1 (VEGFR1); JAK1; JAK3 MAP2K1 (MEK1); PDGFRA (PDGFR alpha); PRKCA (PKC alpha); b) cell based assay: JAK-STAT.

PDGFRA (PDGFR alpha) = PDGFRA (PDGFR alpha) (Homo sapiens, UniProt P16234); experiment: Biochemical kinase assay PDGFRA; details: cell free, read-out: inhibition of PDGFRA (PDGRFR alpha)
Description: as §4

PRKCA (PKC alpha) = PRKCA (PKC alpha) (Homo sapiens, UniProt P17252); experiment: Biochemical kinase assay PRKCA
Description: as §4

[3] = test system: Cyclobutane Pyrimidine Dimers (CPD); experiment: UVB damage: cyclobutane pyrimidine dimers (ELISA); assay type: cell-based, human; details: HaCaT
Description: Effect on Cyclobutane Pyrimidine Dimers (CPD); Effect on 8-oxo-G formation: Cell line: HaCaT (human keratinocytes); test items: IS 181; concentration range: 0.1-100 μg/ml (Duplicate wells). Method of estimation: Plating of cells; Sera starvation with 0.1% FBS (24 hours); treatment of cells with test items (24 hours); UVB damage (30 mJ/cm2)+Test items addition (24 hours); Cyclobutane pyrimidine dimers (CPD) and 8-oxo-G estimation using ELISA.

Chain of JAK1 (P23458 whole entry): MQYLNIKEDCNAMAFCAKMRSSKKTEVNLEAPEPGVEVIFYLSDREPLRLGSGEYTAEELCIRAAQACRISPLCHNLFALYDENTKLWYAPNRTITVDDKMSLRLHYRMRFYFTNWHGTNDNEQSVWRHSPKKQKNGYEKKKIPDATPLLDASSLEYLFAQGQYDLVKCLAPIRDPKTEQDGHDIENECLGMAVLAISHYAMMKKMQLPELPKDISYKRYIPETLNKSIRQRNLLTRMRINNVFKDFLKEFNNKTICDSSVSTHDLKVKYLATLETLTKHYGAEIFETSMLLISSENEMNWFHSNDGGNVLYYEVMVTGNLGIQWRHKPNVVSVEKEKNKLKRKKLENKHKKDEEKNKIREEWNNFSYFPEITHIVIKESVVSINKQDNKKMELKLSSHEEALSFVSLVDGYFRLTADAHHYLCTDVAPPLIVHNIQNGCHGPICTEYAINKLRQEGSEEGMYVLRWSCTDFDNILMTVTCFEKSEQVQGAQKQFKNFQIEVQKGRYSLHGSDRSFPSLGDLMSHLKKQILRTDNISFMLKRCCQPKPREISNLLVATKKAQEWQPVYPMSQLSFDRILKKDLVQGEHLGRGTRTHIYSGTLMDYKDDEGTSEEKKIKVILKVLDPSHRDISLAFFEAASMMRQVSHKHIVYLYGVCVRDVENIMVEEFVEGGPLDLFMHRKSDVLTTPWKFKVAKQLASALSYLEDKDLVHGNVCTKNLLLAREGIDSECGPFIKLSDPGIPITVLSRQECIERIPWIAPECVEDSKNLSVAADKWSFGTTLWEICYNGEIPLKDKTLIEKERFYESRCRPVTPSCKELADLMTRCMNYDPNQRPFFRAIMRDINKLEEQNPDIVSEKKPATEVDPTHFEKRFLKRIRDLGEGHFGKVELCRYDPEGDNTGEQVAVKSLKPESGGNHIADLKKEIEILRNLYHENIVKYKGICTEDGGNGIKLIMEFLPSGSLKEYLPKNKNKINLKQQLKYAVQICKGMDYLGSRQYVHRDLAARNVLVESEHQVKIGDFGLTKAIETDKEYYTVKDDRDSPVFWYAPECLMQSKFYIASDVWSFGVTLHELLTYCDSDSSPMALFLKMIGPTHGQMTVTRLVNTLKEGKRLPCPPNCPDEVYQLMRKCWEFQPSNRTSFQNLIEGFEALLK
Chain of PDGFRA (PDGFR alpha) (P16234 24-1089): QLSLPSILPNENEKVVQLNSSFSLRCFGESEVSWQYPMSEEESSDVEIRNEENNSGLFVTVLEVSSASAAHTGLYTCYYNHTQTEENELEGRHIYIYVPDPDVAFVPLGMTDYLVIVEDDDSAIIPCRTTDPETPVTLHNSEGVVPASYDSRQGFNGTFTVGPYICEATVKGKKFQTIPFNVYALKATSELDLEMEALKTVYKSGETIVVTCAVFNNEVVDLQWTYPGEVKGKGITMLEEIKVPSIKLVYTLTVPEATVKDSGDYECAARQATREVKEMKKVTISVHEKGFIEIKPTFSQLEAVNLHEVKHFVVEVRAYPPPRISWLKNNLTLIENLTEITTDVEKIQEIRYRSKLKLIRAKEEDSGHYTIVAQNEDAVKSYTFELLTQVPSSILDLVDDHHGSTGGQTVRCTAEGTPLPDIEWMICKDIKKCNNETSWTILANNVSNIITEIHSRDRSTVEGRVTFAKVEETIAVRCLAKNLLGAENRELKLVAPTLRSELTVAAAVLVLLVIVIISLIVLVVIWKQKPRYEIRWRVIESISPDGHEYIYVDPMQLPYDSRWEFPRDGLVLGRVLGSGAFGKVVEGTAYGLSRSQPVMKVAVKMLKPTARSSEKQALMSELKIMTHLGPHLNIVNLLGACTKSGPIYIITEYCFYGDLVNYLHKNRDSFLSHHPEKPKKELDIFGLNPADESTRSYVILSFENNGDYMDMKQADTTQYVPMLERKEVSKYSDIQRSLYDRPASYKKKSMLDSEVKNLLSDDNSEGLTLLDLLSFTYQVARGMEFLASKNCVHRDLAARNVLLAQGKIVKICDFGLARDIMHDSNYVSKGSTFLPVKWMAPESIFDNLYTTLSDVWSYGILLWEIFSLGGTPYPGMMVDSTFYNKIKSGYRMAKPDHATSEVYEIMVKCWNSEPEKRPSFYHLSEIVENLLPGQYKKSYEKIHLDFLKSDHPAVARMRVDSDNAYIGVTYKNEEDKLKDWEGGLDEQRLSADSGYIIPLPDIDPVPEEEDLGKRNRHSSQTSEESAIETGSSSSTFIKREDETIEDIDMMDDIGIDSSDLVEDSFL

- IC50 ([2]; 24 h): > 700 µM
- IC50 value ([2]; 24 h): >1000 µg/mL
- IC50 ([2]; 72 h): 160 µM
- IC50 value ([2]; SK-MEL-28, 72 h): 230 µg/mL
- inhibition at 10 µg/mL (JAK1; 10 μg/ml): 14%
- inhibition at 50 µg/mL (JAK1; cell free, 50 μg/ml): 14%
- inhibition at 100 µg/mL (JAK1; cell free, 100 μg/ml): -42%
- inhibition at 250 µg/mL (JAK1; cell free, 250 μg/ml): -93%
- inhibition at 500 µg/mL (JAK1; cell free, 500 μg/ml): -185%
- inhibition at 50 µg/mL (PDGFRA (PDGFR alpha); 50 μg/ml): 8%
- inhibition at 100 µg/mL (PDGFRA (PDGFR alpha); 100 μg/ml): -10%
- inhibition at 250 µg/mL (PDGFRA (PDGFR alpha); 250 μg/ml): -26%
- inhibition at 500 µg/mL (PDGFRA (PDGFR alpha); 500 μg/ml): -49%
- inhibition at 1000 µg/mL (PDGFRA (PDGFR alpha); 1000 μg/ml): -81%
- inhibition at 2000 µg/mL (PDGFRA (PDGFR alpha); 2000 μg/ml): -147%
- inhibition at 10 µg/mL (PRKCA (PKC alpha); 10 μg/ml): 20%
- inhibition at 50 µg/mL (PRKCA (PKC alpha); cell free, 50 μg/ml): 20%
- inhibition at 100 µg/mL (PRKCA (PKC alpha); cell free, 100 μg/ml): 8%
- inhibition at 250 µg/mL (PRKCA (PKC alpha); cell free, 250 μg/ml): -8%
- inhibition at 500 µg/mL (PRKCA (PKC alpha); cell free, 500 μg/ml): -17%
- inhibition at 1000 µg/mL (PRKCA (PKC alpha); cell free, 1000 μg/ml): -19%
- inhibition at 2000 µg/mL (PRKCA (PKC alpha); cell free, 2000 μg/ml): -80%
Substance: H-WVQRVVEKFLK-OH [IS181, H-Trp-Val-Gln-Arg-Val-Val-Glu-Lys-Phe-Leu-Lys-OH]
- cytotoxicity at 24 h, 0.001 μg/ml ([1]; SK-MEL-28, 24 h, 0.001 μg/ml): -4.04%
- cytotoxicity at 24 h, 0.01 μg/ml ([1]; SK-MEL-28, 24 h, 0.01 μg/ml): -1.91%
- cytotoxicity at 24 h, 0.05 μg/ml ([1]; SK-MEL-28, 24 h, 0.05 μg/ml): 2.39%
- cytotoxicity at 24 h, 0.1 μg/ml ([1]; SK-MEL-28, 24 h, 0.1 μg/ml): -4.93%
- cytotoxicity at 24 h, 0.5 μg/ml ([1]; SK-MEL-28, 24 h, 0.5 μg/ml): -1.29%
- cytotoxicity at 24 h, 1 μg/ml ([1]; SK-MEL-28, 24 h, 1 μg/ml): -12.5%
- cytotoxicity at 24 h, 5 μg/ml ([1]; SK-MEL-28, 24 h, 5 μg/ml): -16.3%
- cytotoxicity at 24 h, 10 μg/ml ([1]; SK-MEL-28, 24 h, 10 μg/ml): -14%
- cytotoxicity at 24 h, 50 μg/ml ([1]; SK-MEL-28, 24 h, 50 μg/ml): -6.96%
- cytotoxicity at 24 h, 100 μg/ml ([1]; SK-MEL-28, 24 h, 100 μg/ml): -2.97%
- cytotoxicity at 24 h, 1000 μg/ml ([1]; SK-MEL-28, 24 h, 1000 μg/ml): -11.9%
- cytotoxicity at 72 h, 0.1 μg/ml ([1]; SK-MEL-28, 72 h, 0.1 μg/ml): -10.9%
- cytotoxicity at 72 h, 0.5 μg/ml ([1]; SK-MEL-28, 72 h, 0.5 μg/ml): -14.2%
- cytotoxicity at 72 h, 1 μg/ml ([1]; SK-MEL-28, 72 h, 1 μg/ml): -20%
- cytotoxicity at 72 h, 5 μg/ml ([1]; SK-MEL-28, 72 h, 5 μg/ml): 9.03%
- cytotoxicity at 72 h, 10 μg/ml ([1]; SK-MEL-28, 72 h, 10 μg/ml): 6.16%
- cytotoxicity at 72 h, 50 μg/ml ([1]; SK-MEL-28, 72 h, 50 μg/ml): -4.36%
- cytotoxicity at 72 h, 100 μg/ml ([1]; SK-MEL-28, 72 h, 100 μg/ml): 5.78%
- cytotoxicity at 72 h, 500 μg/ml ([1]; SK-MEL-28, 72 h, 500 μg/ml): 94%
- cytotoxicity at 72 h, 1000 μg/ml ([1]; SK-MEL-28, 72 h, 1000 μg/ml): 91%
- cytotoxicity at 72 h, 2000 μg/ml ([1]; SK-MEL-28, 72 h, 2000 μg/ml): 92%
- Selectivity Index -IC50 (PBMC)/IC50 (HaCaT/SK-MEL-28 cells) ([2]; 24 h): ≤2
- Selectivity Index -IC50 (PBMC)/IC50 (HaCaT/SK-MEL-28 cells) ([2]; 72 h): 4
- cytotoxicity ([2]; SK-MEL-28, 72 h, concentrations ≥0.5 mg/ml): > 90%
- cytotoxic effects ([2]; SK-MEL-28, after 24 h of treatment): no cytotoxic effects
- TARC inhibition (TARC; HaCaT): good extent of IFN-γ and TARC inhibition
- TARC % decrease with respect to TNF-α (TARC; 0.1 μg/ml): 28.6%
- TARC Conc (TARC; 0.1 μg/ml): 43.2 pg/mL
- TARC % decrease with respect to TNF-α (TARC; 1 μg/ml): 11.3%
- TARC Conc (TARC; 1 μg/ml): 53.6 pg/mL
- TARC % decrease with respect to TNF-α (TARC; 5 μg/ml): 1.5%
- TARC Conc (TARC; 5 μg/ml): 59.5 pg/mL
- TARC % decrease with respect to TNF-α (TARC; 10 μg/ml): 5.3%
- TARC Conc (TARC; 10 μg/ml): 57.3 pg/mL
- TARC % decrease with respect to TNF-α (TARC; 100 μg/ml): −22.6%
- TARC Conc (TARC; 100 μg/ml): 74.1 pg/mL
- IL-8 inhibition (IL-8; HaCaT): good extent of TSLP and IL-8 inhibition
- IL-8 % decrease with respect to LPS + PMA (IL-8; 0.1 μg/ml): 8.8%
- IL-8 Conc (IL-8; 0.1 μg/ml): 357.4 pg/mL
- IL-8 % decrease with respect to LPS + PMA (IL-8; 1 μg/ml): 19.8%
- IL-8 Conc (IL-8; 1 μg/ml): 314.5 pg/mL
- IL-8 % decrease with respect to LPS + PMA (IL-8; 5 μg/ml): 4.3%
- IL-8 Conc (IL-8; 5 μg/ml): 375.3 pg/mL
- IL-8 % decrease with respect to LPS + PMA (IL-8; 10 μg/ml): 19.4%
- IL-8 Conc (IL-8; 10 μg/ml): 316.1 pg/mL
- IL-8 % decrease with respect to LPS + PMA (IL-8; 100 μg/ml): −18.1%
- IL-8 Conc (IL-8; 100 μg/ml): 463.1 pg/mL
- decrease in CPD ([3]; UVB 30 mJ/cm2, 10 μg/ml): 28%
- decrease in CPD ([3]; UVB 30 mJ/cm2, 100 μg/ml): 26%

Reference: patent US10538561B2, “Peptide for treating inflammatory diseases” (priority 2015, dated 2020)
